Laboratory results reported in article PMC10095301, “To Target or Not to Target Schistosoma mansoni Cyclic Nucleotide Phosphodiesterase 4A?” (International Journal of Molecular Sciences, 2023).
Where “and” joins values, the source holds several entries; their conditions need not be identical. Identical values can stand only once. Like-named read-outs stand apart in the source and are kept apart here. Marks after values point to notes of the source that are not given here. Each block holds one compound with its values, some of them ahead of it.

What was measured:
SmPDE4A_CD = SmPDE4A_CD (Schistosoma mansoni, UniProt A0ACM8RGL1); assay: biochemical; conditions: for inhibition at 10 µM: read-out: SmPDE4A_CD Inhibition at 10 µM (%)
Protocol: (§1) Enzyme velocity was plotted against substrate concentration, and Km values were determined using GraphPad Prism software version 8, analyzing the Michaelis–Menten kinetics of the enzyme.
(§2) Inhibitors were initially tested at 10 µM (triplicate measurements/assay, n = 3). In follow-up experiments, dose-response curves were made in the range 100 µM–10 pM (triplicate measurements/assay, n = 3). […] The reaction was terminated by the addition of 5 µL Lonza Stop Buffer supplemented with 10 µM pan-PDE4 inhibitor NPD-0001. Subsequently, 5 µL of Lonza Detection reagent (diluted to 80% with reaction buffer) was added, and the reaction was incubated for 10 min at 300 rpm. Luminescence was read with a Victor3 luminometer using a 0.1 s/well program. […] The Cheng-Prussoff equation, embedded in the GraphPad Prism software, was used to convert IC50 values to pKi values.

SmPDE4A_FL = SmPDE4A_FL (Schistosoma mansoni, UniProt A0ACM8RGL1); assay: biochemical; conditions: read-out: SmPDE4A_FL inhibition at 10 µM
Protocol: as §1, §2

S. mansoni [1] = assay: In vitro anti-S. mansoni assay: adult worm killing; type: cell-based, Schistosoma mansoni; conditions: for %Worm Killing (Female) / %Worm Killing (Male): day 5
Protocol: Infected Syrian golden hamsters (Mesocrietus auratus) bred and maintained at the Schistosome Biology Supply Center (SBSC) of Theodor Bilharz Research Institute (TBRI), Giza, Egypt, were used. Animals were housed under controlled biological conditions. Animal experiments were conducted in accordance with the Guide for Care and Use of Laboratory Animals and were approved by the Institutional Review Board (IRB) of TBRI. Seven weeks post-infection, hamsters were anesthetized using pentobarbital in a dose of 200 mg/kg body weight and 2 hamsters were sacrificed to obtain the required number of worms. The animals were then perfused using a normal saline solution (0.9% NaCl), and worms were collected. Six to 8 worms per well were placed in a 12-well tissue culture plate, taking care to guarantee 1 to 2 worm pairs/well and fresh RPMI-1640 medium (plus glutamine, 20% newborn calf serum and antibiotics [streptomycin, penicillin and gentamicin]), containing the indicated concentration of the test compound, was added. Worms were incubated overnight in a CO2 incubator at 37 °C. On the 2nd day, worms were examined by microscopy, washed 3 times with normal saline, a fresh medium was added, and the incubation was continued. On the 3rd day, worm motility was observed, and on the 4th day, the medium was again changed. On day 5 (end of the observation period), worms were microscopically examined for their motility and appearance. Each concentration was tested in duplicate wells, and the final recording of percent worm mortality was determined as the number of dead worms [contracted and opaque] divided by the total number of worms ×100).
(§3) For these experiments, roflumilast and NPD-0001 were freshly prepared in different concentrations (100 µM, 50 µM, 25 µM 10 µM and 5 µM) in RPMI-1640 medium and tested in 12-well tissue culture plates for S. mansoni survival and ovipositing capacity. To assess the effects of roflumilast and NPD-0001 on egg production in vitro, we used 12-well tissue culture plates containing 6–8 worms, including at least 1 or 2 worm couples and fresh RPMI-1640 medium containing the indicated concentration of the test compound. Worms were incubated overnight in a CO2 incubator at 37 °C. On the 2nd day, worms were washed 3 times with normal saline, fresh medium was added, and the incubation was continued. Each concentration was tested in duplicate wells, and on the 4th day, eggs were counted and discarded, and the medium was changed. On day 5 (the end of the observation period), newly deposited eggs were counted. The final egg number is the total count of days 4 and 5 for each concentration tested. Statistical analysis was done with Student’s unpaired, 2-tailed t-test.

S. mansoni [2] = assay: In vitro anti-S. mansoni assay: oviposition (egg count); type: cell-based, Schistosoma mansoni; conditions: eggs of days 4 and 5
Protocol: as §3

[3] = Cytotoxicity on MRC-5 cells; type: cell-based; conditions: human, MRC-5SV40 lung fibroblasts, read-out: MRC-5 pIC50 (converted)
Source text: Table 4 Effect of SmPDE4A inhibitors on S. mansoni survival and oviposition. | column: MRC-5 pIC50

S. mansoni [4] = system: S. mansoni; parameters: method as in PMID 31711973; conditions: data from Botros et al. and this study, cited from earlier work
S. mansoni [5] = system: S. mansoni; parameters: method as in PMID 31711973; conditions: data from Botros et al. and this study, cited from earlier work; remark: listed apart in the source
SmPDE4A = target: SmPDE4A; parameters: method as in PMID 28704396; conditions: estimated value; cited from earlier work
[6] = SmPDE4A_CD pKi, mean ± SEM, n ≥ 3, cAMP at 2 × Km (6 µM), Cheng-Prusoff
[7] = read-out: SmPDE4A_CD pKi (converted)

Structure (SMILES): COc1ccc(C2=NN(C3CCCCCC3)C(=O)[C@H]3CC=CC[C@@H]23)cc1OCCCCOc1ccc(-c2nnn[nH]2)cc1 [NPD-0001]
IC50 (SmPDE4A_CD): 1580 nM
Ki (SmPDE4A_CD; [6]): 126 nM
inhibition at 10 µM (SmPDE4A_CD): > 50%
inhibition at 10 µM (SmPDE4A_FL): > 50%
%Worm Killing (Female) (S. mansoni [1]; 5 µM): 0%
%Worm Killing (Male) (S. mansoni [1]; 5 µM): 0%
%Worm Killing (Female) (S. mansoni [1]; 10 µM): 0%
%Worm Killing (Male) (S. mansoni [1]; 10 µM): 0%
%Worm Killing (Female) (S. mansoni [1]; 25 µM): 0%
%Worm Killing (Male) (S. mansoni [1]; 25 µM): 0%
%Worm Killing (Female) (S. mansoni [1]; 50 µM): 0%
%Worm Killing (Male) (S. mansoni [1]; 50 µM): 0%
%Worm Killing (Male) (S. mansoni [1]; 100 µM): 63%
% Oviposition Reduction (S. mansoni [2]; 5 µM): 0%
% Oviposition Reduction (S. mansoni [2]; 10 µM): 0%
% Oviposition Reduction (S. mansoni [2]; 25 µM): 13%
% Oviposition Reduction (S. mansoni [2]; 50 µM): 23%
% Oviposition Reduction (S. mansoni [2]; 100 µM): 100 * %
IC50 [3]: 7940 nM

Structure (SMILES): COc1ccc(C(=O)Nc2c(Cl)cncc2Cl)cc1OCc1ccccc1 [NPD-0546]
inhibition at 10 µM (SmPDE4A_CD; 10 µM compound): 8%

Structure (SMILES): COc1ccc(C(=O)Nc2c(Cl)cncc2Cl)cc1 [NPD-0548]
inhibition at 10 µM (SmPDE4A_CD; 10 µM compound): 16%

Structure (SMILES): O=C(Nc1cnccc1Cl)c1ccc(OC(F)F)c(OCC2CC2)c1 [NPD-1205]
inhibition at 10 µM (SmPDE4A_CD; 10 µM compound): 21%
reduction in SmPDE4A inhibitory potency (fold) (SmPDE4A_CD; relative to roflumilast): three-fold reduction in potency

Structure (SMILES): O=C(Nc1c(Cl)c[n+]([O-])cc1Cl)c1ccc(OC(F)F)c(OCC2CC2)c1 [NPD-2980, roflumilast N-oxide]
Ki (SmPDE4A_CD; [6]): 63.1 nM

Structure (SMILES): O=C(Nc1cccc(Cl)c1)c1ccc(OC(F)F)c(OCC2CC2)c1 [NPD-3075]
inhibition at 10 µM (SmPDE4A_CD; 10 µM compound): 4%

Structure (SMILES): O=C(Nc1ccncc1)c1ccc(OC(F)F)c(OCC2CC2)c1 [NPD-3076]
inhibition at 10 µM (SmPDE4A_CD; 10 µM compound): 46%

Structure (SMILES): O=C(Nc1ccccc1Cl)c1ccc(OC(F)F)c(OCC2CC2)c1 [NPD-3080]
Ki (SmPDE4A_CD; [7]): 2000 nM
reduction in SmPDE4A inhibitory potency (fold) (SmPDE4A_CD; relative to NPD-1204): 10 fold

Structure (SMILES): COc1ccc(C(=O)Nc2c(Cl)cncc2Cl)cc1OCC1CC1 [NPD-3094]
Ki (SmPDE4A_CD; [7]): 398 nM

Structure (SMILES): COc1ccc(C(=O)Nc2c(Cl)cncc2Cl)cc1OC1CCCC1 [piclamilast]
IC50 (SmPDE4A_CD): 3160 nM
Ki (SmPDE4A_CD; [6]): 316 nM and 63.1 nM
inhibition at 10 µM (SmPDE4A_CD): > 50%
inhibition at 10 µM (SmPDE4A_FL): > 50%

Structure (SMILES): O=C(C1CCCCC1)N1CC(=O)N2CCc3ccccc3C2C1 (stereo not drawn) [praziquantel]
worm killing (S. mansoni [1]; 5 µM (lowest concentration tested), sex not specified): 100%
% Oviposition Reduction (S. mansoni [2]; 5 µM): 100%

Structure (SMILES): O=C(Nc1c(Cl)cncc1Cl)c1ccc(OC(F)F)c(OCC2CC2)c1 [roflumilast]
IC50 (SmPDE4A_CD): 631 nM
Ki (SmPDE4A_CD; [6]): 79.4 nM
inhibition at 10 µM (SmPDE4A_CD): > 50%
inhibition at 10 µM (SmPDE4A_FL): > 50%
IC50 [3]: > 63100 nM
%Worm Killing (Female) (S. mansoni [4]; 5 µM): 0%
%Worm Killing (Male) (S. mansoni [4]; 5 µM): 0%
%Worm Killing (Female) (S. mansoni [4]; 10 µM): 0%
%Worm Killing (Male) (S. mansoni [4]; 10 µM): 0%
%Worm Killing (Female) (S. mansoni [4]; 25 µM): 0%
%Worm Killing (Male) (S. mansoni [4]; 25 µM): 0%
%Worm Killing (Female) (S. mansoni [4]; 50 µM): 0%
%Worm Killing (Male) (S. mansoni [4]; 50 µM): 0%
%Worm Killing (Female) (S. mansoni [4]; 100 µM): 0%
%Worm Killing (Male) (S. mansoni [4]; 100 µM): 0%
% Oviposition Reduction (S. mansoni [5]; 5 µM): 35 * %
% Oviposition Reduction (S. mansoni [5]; 10 µM): 39 * %
% Oviposition Reduction (S. mansoni [5]; 25 µM): 42 * %
% Oviposition Reduction (S. mansoni [5]; 50 µM): 49 * %
% Oviposition Reduction (S. mansoni [5]; 100 µM): 52 * %
SmPDE4A pKi (estimated) (SmPDE4A): 7.8

The next lines start with the values.

inhibition at 10 µM (SmPDE4A_CD; 10 µM compound): > 50%
Ki (SmPDE4A_CD; [7]): 501 nM
IC50 (SmPDE4A_CD; representative dose-response curves, Figure 4B, read-out: pIC50 inhibition of enzymatic activity of SmPDE4A_CD (converted)): 3980 nM
inhibition at 10 µM (SmPDE4A_FL; 10 µM compound, toolbox screen): > 50%
Structure (SMILES): COc1ccc(C2=NN(C3CCN(C(=O)CN4C(=O)CCC4=O)CC3)C(=O)C3CC=CCC23)cc1OC (stereo not drawn) [NPD-0007]

Ki (SmPDE4A_CD; [7]): 3980 nM
Structure (SMILES): COc1ccc(C(=O)Nc2c(Cl)cncc2Cl)cc1OC [NPD-0446]

inhibition at 10 µM (SmPDE4A_CD; 10 µM compound): 9%
Structure (SMILES): COc1ccc(C(=O)Nc2c(Cl)cncc2Cl)cc1Cl [NPD-1180]

Ki (SmPDE4A_CD; [7]): 251 nM
Structure (SMILES): O=C(Nc1ccncc1Cl)c1ccc(OC(F)F)c(OCC2CC2)c1 [NPD-1204]

inhibition at 10 µM (SmPDE4A_CD; 10 µM compound): 15%
Structure (SMILES): COc1ccc(NC(=O)c2ccc(OC(F)F)c(OCC3CC3)c2)cc1Cl [NPD-3000]

Ki (SmPDE4A_CD; [7]): 2510 nM
Structure (SMILES): O=C(Nc1c(Cl)cncc1Cl)c1ccc(F)c(OCC2CC2)c1 [NPD-3093]

Ki (SmPDE4A_CD; [7]): 794 nM
Structure (SMILES): O=C(Nc1c(Cl)cncc1Cl)c1ccc(Cl)c(OCC2CC2)c1 [NPD-3096]
